Experimental findings from the NIST ThermoML archive (doi:10.1016/j.fluid.2016.07.018) are described below.

Molecules are shown by their SMILES. Numbers after ± are expanded uncertainties.

The vapor or sublimation pressure is the equilibrium pressure above the liquid or solid.

The conditions of the data set: Liquid.
[1] abbreviates: 313.15 K, gas saturation method.
[2] abbreviates: 333.15 K, gas saturation method.
Where [3] appears, read: 353.15 K, gas saturation method.
[4] abbreviates: 373.15 K, gas saturation method.
Where [5] appears, read: 393.15 K, gas saturation method.
Where [6] appears, read: 423.15 K, gas saturation method.

As for `CCCCOC(=O)c1ccccc1C(=O)OCCCC` [dibutyl phthalate], the “vapor or sublimation pressure” value was found to be 2.4e-05 ± 2e-06 kPa under setting [1]; 0.000195 ± 1.5e-05 kPa under setting [2]; 0.001289 ± 0.0001 kPa under setting [3]; 0.006211 ± 0.00057 kPa under setting [4]; 0.0127 ± 0.0007 kPa (381.51 K, Closed cell (Static) method); 0.0248 ± 0.0009 kPa (391.7 K, Closed cell (Static) method). The “vapor or sublimation pressure” value is, setting by setting: under setting [5], 0.02452 ± 0.0019 kPa; (401.69 K, Closed cell (Static) method) 0.0461 ± 0.0013 kPa; (411.58 K, Closed cell (Static) method) 0.0824 ± 0.0021 kPa; (421.43 K, Closed cell (Static) method) 0.1441 ± 0.0028 kPa; under setting [6], 0.151 ± 0.012 kPa.

As for `CC(C)COC(=O)c1ccccc1C(=O)OCC(C)C` [diisobutyl 1,2-benzenedioate], the “vapor or sublimation pressure” value is, setting by setting: under setting [1], 4.1e-05 ± 3e-06 kPa; under setting [2], 0.000436 ± 4.3e-05 kPa; under setting [3], 0.002796 ± 0.00025 kPa; under setting [4], 0.01285 ± 0.001 kPa; under setting [5], 0.0445 ± 0.0035 kPa; under setting [6], 0.2156 ± 0.017 kPa.
